Experiments:
CK1δ = CK1δ (Homo sapiens (Human), UniProt P48730); assay: CK1δ kinase assay (Caliper LABCHIP electrophoretic separation of fluoresceinated peptide substrate and product); assay type: biochemical; settings: 200 pM CK1δ, 50 μM ATP, 1.5 μM peptide substrate, 22 hours at room temperature; read-out: CK1δ (IC50)
Outline: (§1)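 Eleven-concentration compound series in kinase reactions run for 22 hours at room temperature. Terminated with EDTA, with product conversion read by electrophoretic separation. Non-linear regression gave IC50.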

CK1ε = CK1ε (Homo sapiens (Human), UniProt P49674); assay: CK1ε kinase assay (Caliper LABCHIP electrophoretic separation of fluoresceinated peptide substrate and product); assay type: biochemical; settings: 200 pM CK1ε, 50 μM ATP, 1.5 μM peptide substrate, 22 hours at room temperature; read-out: CK1ε (IC50)
Outline: as §1

Sequence of CK1ε (P49674 whole entry): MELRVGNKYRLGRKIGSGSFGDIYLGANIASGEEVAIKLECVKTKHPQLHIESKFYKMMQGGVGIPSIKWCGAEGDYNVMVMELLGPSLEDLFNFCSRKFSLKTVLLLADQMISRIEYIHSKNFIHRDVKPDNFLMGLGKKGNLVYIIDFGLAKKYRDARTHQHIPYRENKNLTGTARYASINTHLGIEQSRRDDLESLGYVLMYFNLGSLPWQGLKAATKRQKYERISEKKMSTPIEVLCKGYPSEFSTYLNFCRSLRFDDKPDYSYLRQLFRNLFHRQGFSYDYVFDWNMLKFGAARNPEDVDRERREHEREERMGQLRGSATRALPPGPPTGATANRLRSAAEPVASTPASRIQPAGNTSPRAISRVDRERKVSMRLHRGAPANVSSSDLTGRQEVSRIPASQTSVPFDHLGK
Sequence of CK1δ (P48730 whole entry): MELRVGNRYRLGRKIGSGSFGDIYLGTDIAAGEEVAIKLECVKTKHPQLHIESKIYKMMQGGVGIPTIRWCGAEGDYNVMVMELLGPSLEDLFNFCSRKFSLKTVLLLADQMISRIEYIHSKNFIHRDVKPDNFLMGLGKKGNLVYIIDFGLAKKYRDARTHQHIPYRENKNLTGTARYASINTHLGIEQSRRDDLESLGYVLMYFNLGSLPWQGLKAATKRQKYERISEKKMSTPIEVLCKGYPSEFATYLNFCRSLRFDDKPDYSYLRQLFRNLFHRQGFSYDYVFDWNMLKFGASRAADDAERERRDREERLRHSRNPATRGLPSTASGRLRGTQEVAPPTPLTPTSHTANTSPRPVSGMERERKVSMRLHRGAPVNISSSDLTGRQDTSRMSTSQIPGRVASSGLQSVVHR

Compound	IC50 (CK1δ) [nM]	IC50 (CK1ε) [nM]
Cn1cc2c(F)cc(-c3nn4c(c3C(N)=O)CN(C(=O)Nc3ccc(C#N)cc3)CC4)cc2n1 [Compound 328]	10 to 100	10 to 100
N#Cc1ccc(NC(=O)N2CCn3nc(-c4ccc(F)c(Cl)c4)c(C(N)=O)c3C2)cc1C(F)(F)F [Compound 204, 2-(3-Chloro-4-fluorophenyl)-N^5-(4-cyano-3-(trifluoromethyl)phenyl)-6,7-dihydropyrazolo[1,5-a] pyrazine-3,5(4H)-dicarboxamide]	0.01 to 10	0.01 to 10
COc1ccc(Cl)cc1-c1nn2c(c1C(N)=O)CN(C(=O)Nc1ccc(C#N)cc1)CC2 [Compound 278, 2-(5-Chloro-2-methoxyphenyl)-N^5-(4-cyanophenyl)-6,7-dihydropyrazolo[1,5-a] pyrazine-3,5(4H)-dicarboxamide]	10 to 100	10 to 100
NC(=O)c1c(-c2cc(Cl)c(F)c(Cl)c2)nn2c1CN(C(=O)Nc1ccc(F)c(F)c1)CC2 [Compound 260, 2-(3,5-Dichloro-4-fluorophenyl)-N^5-(3,4-difluorophenyl)-6,7-dihydropyrazolo[1,5-a] pyrazine-3,5(4H)-dicarboxamide]	0.01 to 10	0.01 to 10
CCOc1cc(Cl)cc(-c2nn3c(c2C(N)=O)CN(C(=O)Nc2ccc(C#N)c(Cl)c2)CC3)c1 [Compound A61, N^5-(3-Chloro-4-cyanophenyl)-2-(3-chloro-5-ethoxyphenyl)-6,7-dihydropyrazolo[1,5-a]pyrazine-3,5(4H)-dicarboxamide]	0.01 to 10	0.01 to 10
CC1Cn2nc(-c3cccc(Cl)c3)c(C(N)=O)c2CN1C(=O)Nc1ccc(C#N)cc1 (single isomer, unassigned) [Compound 331, 2-(3-Chlorophenyl)-N^5-(4-cyanophenyl)-6-methyl-6,7-dihydropyrazolo[1,5-a]pyrazine-3,5(4H)-dicarboxamide]	0.01 to 10	0.01 to 10
NC(=O)c1c(-c2cc(F)cc(Cl)c2)nn2c1CN(C(=O)Nc1cc(Cl)cc(Cl)c1)CC2 [Compound 216, 2-(3-Chloro-5-fluorophenyl)-N^5-(3,5-dichlorophenyl)-6,7-dihydropyrazolo[1,5-a] pyrazine-3,5(4H)-dicarboxamide]	0.01 to 10	0.01 to 10
N#Cc1ccc(NC(=O)N2CCn3nc(-c4ccc(F)c(F)c4)c(C(N)=O)c3C2)cc1 [Compound 291, N^5-(4-Cyanophenyl)-2-(3,4-difluorophenyl)-6,7-dihydropyrazolo[1,5-a] pyrazine-3,5(4H)-dicarboxamide]	0.01 to 10	0.01 to 10
N#Cc1ccc(NC(=O)N2Cc3c(C(N)=O)c(-c4ccc(F)c(Cl)c4)nn3C3(COC3)C2)cc1 [Compound A88, 2′-(3-Chloro-4-fluorophenyl)-N^5′-(4-cyanophenyl)-4′H-spiro[oxetane-3,7′-pyrazolo[1,5-a]pyrazine]-3′,5′(6′H)-dicarboxamide]	0.01 to 10	0.01 to 10
NC(=O)c1c(-c2cccc(F)c2)nn2c1CN(C(=O)Nc1cccc(F)c1)CC2 [Compound 77, N^5,2-Bis(3-fluorophenyl)-6,7-dihydropyrazolo[1,5-a]pyrazine-3,5(4H)-dicarboxamide]	0.01 to 10	0.01 to 10
Cc1nc2cc(-c3nn4c(c3C(N)=O)CN(C(=O)Nc3ccc(C#N)c(F)c3)CC4)cc(Cl)c2o1 [Compound 314, 2-(7-Chloro-2-methylbenzo[d]oxazol-5-yl)-N^5-(4-cyano-3-fluorophenyl)-6,7-dihydropyrazolo[1,5-a]pyrazine-3,5(4H)-dicarboxamide]	0.01 to 10	0.01 to 10
NC(=O)c1c(-c2cc(Cl)cc(Cl)c2)nn2c1CN(C(=O)Nc1ccc(Cl)c(Cl)c1)CC2 [Compound 302, N^5-(3,4-Dichlorophenyl)-2-(3,5-dichlorophenyl)-6,7-dihydropyrazolo[1,5-a] pyrazine-3,5(4H)-dicarboxamide]	0.01 to 10	0.01 to 10
N#Cc1ccc(NC(=O)N2Cc3c(C(N)=O)c(-c4ccc(F)c(Cl)c4)nn3CC23CC3)cc1 [Compound 343, 2′-(3-Chloro-4-fluorophenyl)-N^5′-(4-cyanophenyl)-4′H-spiro[cyclopropane-1,6′-pyrazolo[1,5-a]pyrazine]-3′,5′(7′H)-dicarboxamide]	10 to 100	10 to 100
NC(=O)c1c(-c2ccc(F)c(Cl)c2)nn2c1CN(C(=O)Nc1cccc(OC(F)(F)F)c1)CC2 [Compound 184, 2-(3-Chloro-4-fluorophenyl)-N^5-(3-(trifluoromethoxy)phenyl)-6,7-dihydropyrazolo[1,5-a] pyrazine-3,5(4H)-dicarboxamide]	0.01 to 10	0.01 to 10
CC(C)(O)[C@@H]1CN(C(=O)Nc2ccc(C#N)cc2)Cc2c(C(N)=O)c(-c3ccc(Cl)c(Cl)c3)nn21 (single isomer, unassigned) [Compound A34, N^5-(4-Cyanophenyl)-2-(3,4-dichlorophenyl)-7-(2-hydroxypropan-2-yl)-6,7-dihydropyrazolo[1,5-a]pyrazine-3,5(4H)-dicarboxamide]	0.01 to 10	0.01 to 10
Cc1cc(F)cc(-c2nn3c(c2C(N)=O)CN(C(=O)Nc2ccc4c(c2)OC(F)(F)O4)CC3)c1 [Compound 227, N^5-(2,2-Difluorobenzo[d] [1,3]dioxol-5-yl)-2-(3-fluoro-5-methylphenyl)-6,7-dihydropyrazolo[1,5-a] pyrazine-3,5(4H)-dicarboxamide]	0.01 to 10	0.01 to 10
Cc1nc2cc(-c3nn4c(c3C(N)=O)CN(C(=O)Nc3ccc(C#N)cc3)CC4)cc(Cl)c2o1 [Compound 311, 2-(7-Chloro-2-methylbenzo[d]oxazol-5-yl)-N^5-(4-cyanophenyl)-6,7-dihydropyrazolo[1,5-a]pyrazine-3,5(4H)-dicarboxamide]	0.01 to 10	0.01 to 10
COc1cccc(-c2nn3c(c2C(N)=O)CN(C(=O)NC(C)(C)C)CC3)c1 [Compound 109, N^5-(tert-Butyl)-2-(3-methoxyphenyl)-6,7-dihydropyrazolo[1,5-a]pyrazine-3,5(4H)-dicarboxamide]	0.01 to 10	0.01 to 10

More lines, now with the values ahead:

IC50 (CK1δ) [nM]	IC50 (CK1ε) [nM]	Compound
0.01 to 10	0.01 to 10	N#Cc1ccc(NC(=O)N2Cc3c(C(N)=O)c(-c4ccc(F)c(Cl)c4)nn3CC2C2CC2)cc1 (single isomer, unassigned) [Compound 342]
0.01 to 10	0.01 to 10	COc1cc(NC(=O)N2CCn3nc(-c4cccc(F)c4)c(C(N)=O)c3C2)cc(OC)c1 [Compound 56, N^5-(3,5-Dimethoxyphenyl)-2-(3-fluorophenyl)-6,7-dihydropyrazolo[1,5-a]pyrazine-3,5(4H)-dicarboxamide]
0.01 to 10	0.01 to 10	Cc1cc(-c2nn3c(c2C(N)=O)CN(C(=O)Nc2ccc4c(c2)CS(=O)(=O)C4)CC3)ccc1F [Compound 246, N^5-(2,2-Dioxido-1,3-dihydrobenzo[c]thiophen-5-yl)-2-(4-fluoro-3-methylphenyl)-6,7-dihydropyrazolo[1,5-a] pyrazine-3,5(4H)-dicarboxamide]
0.01 to 10	0.01 to 10	NC(=O)c1c(-c2cccc(Cl)c2)nn2c1CN(C(=O)Nc1ccc(Cl)nc1)CC2 [Compound 171, 2-(3-Chlorophenyl)-N^5-(6-chloropyridin-3-yl)-6,7-dihydropyrazolo[1,5-a] pyrazine-3,5(4H)-dicarboxamide]
0.01 to 10	0.01 to 10	N#Cc1ccc(NC(=O)N2Cc3c(C(N)=O)c(-c4ccc(Cl)c(Cl)c4)nn3[C@H]3COC[C@H]32)cc1 [Compound 349, (5aS,8aR)-N^5-(4-Cyanophenyl)-2-(3,4-dichlorophenyl)-5a,6,8,8a-tetrahydrofuro[3,4-e]pyrazolo[1,5-a]pyrazine-3,5(4H)-dicarboxamide]
0.01 to 10	10 to 100	NC(=O)c1c(-c2cccc(F)c2)nn2c1CN(C(=O)NC1C[C@H]1c1ccccc1)CC2 (stereo in doubt) [Compound 44, 2-(3-Fluorophenyl)-N^5-((1R,2S)-2-phenylcyclopropyl)-6,7-dihydropyrazolo[1,5-a]pyrazine-3,5(4H)-dicarboxamide]
0.01 to 10	0.01 to 10	NC(=O)c1c(-c2cccc(F)c2)nn2c1CN(C(=O)Nc1cccc(C(F)(F)F)c1)CC2 [Compound 50, 2-(3-Fluorophenyl)-N^5-(3-(trifluoromethyl)phenyl)-6,7-dihydropyrazolo[1,5-a]pyrazine-3,5(4H)-dicarboxamide]
0.01 to 10	0.01 to 10	Cc1n[nH]c2c(Cl)cc(-c3nn4c(c3C(N)=O)CN(C(=O)Nc3ccc(C#N)cc3)CC4)cc12 [Compound 320, 2-(7-Chloro-3-methyl-1H-indazol-5-yl)-N^5-(4-cyanophenyl)-6,7-dihydropyrazolo[1,5-a]pyrazine-3,5(4H)-dicarboxamide]
0.01 to 10	0.01 to 10	CC1Cn2nc(-c3ccc(F)c(Cl)c3)c(C(N)=O)c2CN1C(=O)Nc1ccc(C#N)cc1 (single isomer, unassigned) [Compound 329, 2-(3-Chloro-4-fluorophenyl)-N^5-(4-cyanophenyl)-6-methyl-6,7-dihydropyrazolo[1,5-a]pyrazine-3,5(4H)-dicarboxamide]
0.01 to 10	0.01 to 10	NC(=O)c1c(-c2cccc(Cl)c2)nn2c1CN(C(=O)Nc1ccc(F)c(F)c1)CC2 [Compound 156, 2-(3-Chlorophenyl)-N^5-(3,4-difluorophenyl)-6,7-dihydropyrazolo[1,5-a]pyrazine-3,5(4H)-dicarboxamide]
0.01 to 10	0.01 to 10	CSc1cccc(-c2nn3c(c2C(N)=O)CN(C(=O)Nc2ccc(C#N)cc2)CC3)c1 [Compound 281, N^5-(4-Cyanophenyl)-2-(3-(methylthio)phenyl)-6,7-dihydropyrazolo[1,5-a] pyrazine-3,5(4H)-dicarboxamide]

— US9598423B2 (BRISTOL-MYERS SQUIBB COMPANY, priority 2013, dated 2017)
